Test results: ChEMBL document CHEMBL4673234, “Design, synthesis, biological evaluation and molecular docking of new uracil analogs-1,2,4-oxadiazole hybrids as potential anticancer agents” (Bioorg Med Chem Lett, 2020)

Legend:
A-375 [1] = assay: Cytotoxicity against human A-375 cells assessed as cell viability at 5 uM incubated for 48 hrs (reference value: 100 %); assay type: functional; conditions: read-out: Activity
A-375 [2] = assay: Cytotoxicity against human A-375 cells assessed as cell viability at 10 uM incubated for 48 hrs (reference value: 100 %); assay type: functional; conditions: read-out: Activity
MDA-MB-231 = assay: Cytotoxicity against human MDA-MB-231 cells assessed as reduction in cell viability incubated for 48 hrs; assay type: functional, cell-based; conditions: MDA-MB-231, 48 h
MCF7 = assay: Cytotoxicity against human MCF7 cells assessed as reduction in cell viability incubated for 48 hrs; assay type: functional, cell-based; conditions: MCF7, 48 h
A549 = assay: Cytotoxicity against human A549 cells assessed as reduction in cell viability incubated for 48 hrs; assay type: functional, cell-based; conditions: A549, 48 h
HT-1080 = assay: Cytotoxicity against human HT-1080 cells assessed as reduction in cell viability incubated for 48 hrs; assay type: functional, cell-based; conditions: HT-1080, 48 h

| SMILES | viability at 5 µM (A-375 [1]) [%] | viability at 10 µM (A-375 [2]) [%] | IC50 (MDA-MB-231) [µM] | IC50 (MCF7) [µM] | IC50 (A549) [µM] | IC50 (HT-1080) [µM] |
| --- | --- | --- | --- | --- | --- | --- |
| COc1ccc(-c2nc(-c3ccc(Cn4cc(F)c(=O)[nH]c4=O)cc3)no2)cc1 | 50 | 82 |  |  |  |  |
| COc1ccc(-c2ccc(-c3nc(-c4ccc(Cn5ncc(=O)[nH]c5=O)cc4)no3)cc2)cc1 | 76 | 44 |  |  |  |  |
| COc1ccc(-c2nc(-c3ccc(Cn4ncc(=O)[nH]c4=O)cc3)no2)cc1 | 53 | 55 |  |  |  |  |
| O=c1[nH]c(=O)n(Cc2ccc(-c3noc(-c4ccccc4)n3)cc2)cc1F | 56 | 30 |  |  |  |  |
| O=c1ccn(Cc2ccc(-c3noc(-c4ccccc4)n3)cc2)c(=O)[nH]1 | 76 | 72 |  |  |  |  |
| COc1cccc2c1C(=O)c1c(O)c3c(c(O)c1C2=O)C[C@@](O)(C(=O)CO)C[C@@H]3O[C@H]1C[C@H](N)[C@H](O)[C@H](C)O1 [DOXORUBICIN] |  |  | 3.41 | 1.83 | 2.67 | 0.93 |
